Several values for one entry are separate records, joined by “and”; a condition that tells them apart may be missing. Equal entries are not always repeated.
Biological target: T1, Chymase (Homo sapiens) (UniProt P23946)
T1 sequence (whole entry): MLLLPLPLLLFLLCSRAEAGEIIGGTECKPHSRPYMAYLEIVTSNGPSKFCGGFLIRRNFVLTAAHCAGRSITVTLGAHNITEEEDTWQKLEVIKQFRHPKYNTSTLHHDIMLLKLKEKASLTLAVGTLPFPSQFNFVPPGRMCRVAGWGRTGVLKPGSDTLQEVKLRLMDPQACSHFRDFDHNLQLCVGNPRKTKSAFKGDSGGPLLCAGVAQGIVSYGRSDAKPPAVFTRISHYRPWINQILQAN
Experiment: Inhibitory activity against serine protease chymase was determined at 1 uM
Details: not given

inhibition | SMILES
36.5% and > 30% | CSc1[nH]nc(NC(=O)c2ccc(Cl)cc2)c1S(=O)(=O)c1ccc(Cl)cc1
> 30% | CCCS(=O)(=O)c1ccc(NS(=O)(=O)c2sc3ccc(Cl)cc3c2C)cc1
> 30% | O=C(Oc1ccc(Cl)cc1)c1cnc(C2COc3ccccc3O2)s1 (centres undefined)

Biological target: T1, Chymase (Homo sapiens)
Experiment: Inhibitory activity against serine protease chymase was determined
Details: not given

Inhibitory activity [µM] | SMILES
0.683 | Cc1ccc(/C=C2\SC(=O)N(C(=O)c3cccc(-c4ccccc4)c3)C2=O)o1
190 | Cc1ccc(/C=C2\SC(=O)N(Cc3ccc4ccccc4c3)C2=O)o1
141 | Cc1ccc(/C=C2\SC(=O)N(CSc3ccc4ccccc4c3)C2=O)o1
8.91 | Cc1ccc(/C=C2\SC(C)(C)N(C(=O)c3ccc4ccccc4c3)C2=O)o1
24 | Cc1ccc(/C=C2\SC(=O)N(CS(=O)(=O)c3ccc4ccccc4c3)C2=O)o1
0.081 | O=C1S/C(=C\c2ccsc2)C(=O)N1C(=O)c1ccc2ccccc2c1
4.54 | Cc1ccc(/C=C2\SCCN(C(=O)c3ccc4ccccc4c3)C2=O)o1
0.691 | O=C1S/C(=C/c2ccc(O)cc2)C(=O)N1S(=O)(=O)c1ccc2ccccc2c1
4.22 | COC(=O)C(c1ccc2ccccc2c1)N1C(=O)S/C(=C\c2ccc(C)o2)C1=O (centres undefined)
53 | O=C1ON(C(=O)c2ccc3ccccc3c2)C(=O)/C1=C/c1ccc(O)c(O)c1
0.097 | Cc1ccc(/C=C2\SC(=O)N(C(=O)c3ccc4ccccc4c3)C2=O)o1
0.61 | COC(=O)c1ccc(C(=O)n2cnc3cc4ccccc4cc3c2=O)cc1
87 | Cc1ccc(-c2nnc(NC(=O)c3ccc4ccccc4c3)s2)o1

The next lines start with the molecule.

SMILES | Inhibitory activity [µM]
Cc1ccc(C(=O)Nc2nnc(C(=O)c3ccccc3)s2)cc1 | 75
Cc1ccc(C(=O)Sc2nnc(SC(=O)c3ccc(C)cc3)s2)cc1 | 3.24
Clc1ccc(CNc2nnc(Sc3nc4ccccc4s3)s2)cc1 | 321
O=C(Oc1ccccc1)N1C(=O)S/C(=C\c2ccco2)C1=O | 3.6
O=C1c2ccccc2C(=O)N1S(=O)(=O)c1ccc2ccccc2c1 | 176
O=C1SC(Cc2ccc3ccccc3c2)C(=O)N1Cc1ccoc1 (centres undefined) | 273
O=C(Nc1nnc(SCc2nc3ccccc3s2)s1)c1ccc(Cl)cc1 | 27
O=C(Nc1nnc(Sc2nc3ccccc3s2)s1)C(Cl)(Cl)Cl | 14
O=c1n(S(=O)(=O)c2ccc3ccccc3c2)c2ccccc2n1S(=O)(=O)c1ccc2ccccc2c1 | 3.46
Cc1ccc(C(=O)Nc2nnc(SC(=O)c3ccc(C)cc3)s2)cc1 | 48
O=C(Nc1nnc(Sc2nc3ccccc3s2)s1)c1ccccc1 | 1.34
O=C1ON(S(=O)(=O)c2ccc3ccccc3c2)C(=O)/C1=C/c1ccc(F)cc1 | 608
O=C(Nc1nnc(Sc2nc3ccccc3s2)s1)c1ccc(Cl)cc1 | 0.308

Same assay, conditions: concentration not given here

inhibition [%] | SMILES
17.8 | O=C(Oc1ccc(Cl)cc1)c1cnc(C2COc3ccccc3O2)s1 (centres undefined)

Biological target: T2, Chymase (Homo sapiens, UniProt P23946)
T2 sequence (P23946 whole entry): T1 sequence (whole entry)
Experiment: Inhibitory concentration against serine protease chymase was determined
Details: not given

IC50 [nM] | SMILES
909 | CCCS(=O)(=O)c1ccc(NS(=O)(=O)c2sc3ccc(Cl)cc3c2C)cc1

Test system: not listed separately
Experiment: Percent compound remaining in human plasma after incubation for 60 min at 37 C.
Format: ADME, cell-free
Details: read-out: Stability

remaining at 1 h [%] | SMILES
100 | CCCS(=O)(=O)c1ccc(NS(=O)(=O)c2sc3ccc(Cl)cc3c2C)cc1
11.8 | O=C(Oc1ccc(Cl)cc1)c1cnc(C2COc3ccccc3O2)s1 (centres undefined)

Test system: not listed separately
Experiment: Percent remaining in human plasma after incubation for 60 min at 37 C.
Format: ADME, cell-free
Details: read-out: Stability

remaining at 1 h [%] | SMILES
6.4 | CSc1[nH]nc(NC(=O)c2ccc(Cl)cc2)c1S(=O)(=O)c1ccc(Cl)cc1
